Measurements reported in patent publication US4912036A, “Rapid differentiation of bacteria using cyclic polypeptide antibiotics” (Eastman Kodak Company, priority 1986, dated 1990).

Assays:
[1] = tested on: P. aeruginosa; assay: RIND VII reduction solution assay, ΔOD 635 nm; assay type: cell-based, Pseudomonas aeruginosa; conditions: antibiotic 10^-4 molar
Experimental: (§1) Bacterial suspensions were prepared by growing the cells in BHT broth to stationary phase overnight at 37° C. P. auruginosa was grown with agitation. About 40 ml of each overnight culture was centrifuged, decanted and washed once with 0.05 molar potassium phosphate buffer or 0.05 molar N-2-hydroxy-ethylpiperazine-N'-2-ethanesulfonic acid (HEPES) buffer, pH 7.8, and resuspended in buffer.
TERGITOL 7 anionic surfactant was used to differentiate viable bacteria according to the prior art method. Various concentrations of TERGITOL 7 surfactant were mixed with a 10% glucose solution (50 μl), 3-(4,5-dimethyl-2-thiazolyl)-2,5-diphenyl-2N-tetrazolium bromide (MTT) (25 μl at 5 mg/ml methanol) or a RIND VII dispersion (1.5 ml) and phenazine methosulfate ETA (25 μl at 3 mg/ml methanol). The volume of each test solution was brought to 3 ml with potassium phosphate buffer. A cell suspension (100 μl at about 10^8 cells/ml) was then added. The solutions were incubated at 37° C. for 15 and 30 minutes in the presence of either E. coli, a gram(-) bacterium, or S. aureus, a gram(+) bacterium. The amount of dye formed was then determined visually, and graded as follows: "O" indicates no dye formation, +/- indicates faint dye formation, 1+ indicates light dye formation, 2+ indicates moderate dye formation, 3+ indicates strong dye formation, and 4+ indicates very strong dye formation. […]

[2] = tested on: S. pyogenes; assay: RIND VII reduction solution assay, ΔOD 635 nm; assay type: cell-based, Streptococcus pyogenes; conditions: cell concentration 1.5 × 10^8 /ml, antibiotic 10^-4 molar
[3] = tested on: S. faecalis; assay: RIND XXIX reduction solution assay, Δ fluorescence; assay type: cell-based, Streptococcus faecalis; conditions: S. faecalis (gram +) about 5×10^7 cells/ml, gramicidin S 0.1 mg/ml, 37° C.
Experimental: as §1
Dispersions containing RIND compounds were prepared by dissolving the RIND compound in N,N-dimethylformamide (DMF) at 16 mg compound per ml of solvent. An aliquot (250 μl) of the resulting solution was added to 500 μl of TRITON X-100 surfactant. This mixture was then added dropwise with stirring to 25 ml of 0.05 molar HEPES buffer. A dispersion of RIND XXIX was prepared similarly except that DMF was acidified with 0.1% sulfuric acid. […]
(§2) The solutions were incubated at 37° C. for 30 minutes, and the change in fluorescence emission (Δ fluorescence) was determined as the difference between the readings taken when the solutions were first mixed and then after 30 minutes incubation. Measurements were made in a commercially available MICROFLUOR Reader (available from Dynatech Laboratories, Alexandria, Virginia, U.S.A.), modified with an excitation filter at 540 nm, an emission filter at 620 nm and a Xenon lamp.

[4] = tested on: K. pneumoniae; assay: RIND XXIX reduction solution assay, Δ fluorescence; assay type: cell-based, Klebsiella pneumoniae; conditions: K. pneumoniae (gram -) about 5×10^7 cells/ml, gramicidin S 0.1 mg/ml, 37° C.
Experimental: as §1
Dispersions containing RIND compounds were prepared by dissolving the RIND compound in N,N-dimethylformamide (DMF) at 16 mg compound per ml of solvent. An aliquot (250 μl) of the resulting solution was added to 500 μl of TRITON X-100 surfactant. This mixture was then added dropwise with stirring to 25 ml of 0.05 molar HEPES buffer. A dispersion of RIND XXIX was prepared similarly except that DMF was acidified with 0.1% sulfuric acid. Compositions containing water-compatible RIND compounds were prepared as described above except the surfactant was omitted.
Each test solution contained the following: dispersion of RIND XXIX (25 μl) prepared as described above, glucose (400 μl of 10% aqueous solution), tryptose (400 μl of 10% aqueous solution), trimethyl-1,4-benzoquinone ETA (500 μl of 1.5 mg/ml methanol). Aliquots (200 μl) of the mixture were mixed with solutions of the antibiotics (50 μl). The cell suspensions (50 μl) were then added. The final concentration of gramcidin S and tyrocidin were 0.1 mg/ml and 3.3 mg/ml, respectively. The final cell concentration was about 5×10^7 cells/ml. Cell control solutions contained all reagents except antibiotics. Background controls consisted of both buffer and solution controls. […]
as §2, with “lamp. […]” for “lamp.”

[5] = tested on: S. faecalis; assay: MTT reduction solution assay, ΔOD 540 nm; assay type: cell-based, Streptococcus faecalis; conditions: S. faecalis (+) 5×10^7, gramicidin S 0.00625 mg/ml, 37° C.
Experimental: (§3) These examples illustrate the differentiation of bacteria using a tetrazolium salt and phenolic dye as the reducible compounds and two cyclic polypeptide antibiotics according to the present invention. The tetrazolium salt was 3-(4,5-dimethyl-2-thiazolyl) -2,5-diphenyl-2H-tetrazolium bromide (MTT) which forms a colored formazan dye when reduced. The phenolic dye was 2,6-dichloroindophenol (DCIP) which forms a colorless species when reduced.
(§4) Solutions of the reducible compounds were prepared with the following: HEPES buffer (3 ml, 0.05 molar, pH 7.5), TRITON X-100 nonionic surfactant (1% concentration), glucose (50 μl of 10% in water), tryptose (50 μl of a 10% solution in water), MTT (25 μl of 5 mg/ml methanol) or DCIP (25 μl of 3 mg/ml methanol) and phenazine methosultate ETA (25 μl of 3 mg/ml methanol).
(§5) Test solutions were prepared from the following: reducible compound solution from above (200 μl), 50 μl of either gramicidin S solution (6 mg/ml methanol and 9 ml of buffer) or tyrocidin solution (100 mg/ml methanol and 8 ml of buffer) and 50 μl of cell suspension. […] The change in optical density (ΔOD) was determined after 30 minutes at 37° C. at 540 nm for the MTT assay and at 620 nm for the DCIP assay using a commercially available spectrophotometer.

[6] = tested on: E. coli; assay: MTT reduction solution assay, ΔOD 540 nm; assay type: cell-based, Escherichia coli; conditions: E. coli (-) 5×10^7, gramicidin S 0.00625 mg/ml, 37° C.
Experimental: as §3, §4, §5

[7] = tested on: P. aeruginosa; assay: MTT reduction solution assay, ΔOD 540 nm; assay type: cell-based, Pseudomonas aeruginosa; conditions: P. aeruginosa (-) 5×10^7, gramicidin S 0.00625 mg/ml, 37° C.
Experimental: as §3, §4, §5

[8] = tested on: S. aureus; assay: DCIP reduction solution assay, ΔOD 620 nm; assay type: cell-based, Staphylococcus aureus; conditions: S. aureus (+) 5×10^7, gramicidin S 0.00625 mg/ml, 37° C.
Experimental: as §3, §4, §5

[9] = tested on: E. coli; assay: DCIP reduction solution assay, ΔOD 620 nm; assay type: cell-based, Escherichia coli; conditions: E. coli (-) 5×10^7, gramicidin S 0.00625 mg/ml, 37° C.
Experimental: as §3, §4, §5

[10] = tested on: P. aeruginosa; assay: DCIP reduction solution assay, ΔOD 620 nm; assay type: cell-based, Pseudomonas aeruginosa; conditions: P. aeruginosa (-) 5×10^7, gramicidin S 0.00625 mg/ml, 37° C.
Experimental: as §3, §4, §5

## gramicidin S
[1]; P. aeruginosa 7 × 10^7 /ml
  Corrected ΔOD (15 Minutes): 0.107
[1]; P. aeruginosa, cell concentration 1.5 × 10^8 /ml
  Corrected ΔOD (15 Minutes): > 2.0
[2]
  Corrected ΔOD (15 Minutes): 0.186
[3]
  Δ Fluorescence (30 Minutes): 0197
[4]
  Δ Fluorescence (30 Minutes): 3084
[5]
  ΔOD, 540 nm after 30 Minutes: 0.073
[6]
  ΔOD, 540 nm after 30 Minutes: 1.123
[7]
  ΔOD, 540 nm after 30 Minutes: 0.955
[8]
  ΔOD, 620 nm after 30 Minutes: 0.096
[9]
  ΔOD, 620 nm after 30 Minutes: 1.042
[10]
  ΔOD, 620 nm after 30 Minutes: 1.040
